# Where two headings read alike, the source gives them in different places.
# Columns and labels:
# mouse 3T3 fibroblasts = assay: Cytotoxicity, MTS viability assay; assay type: cell-based; settings: Mus musculus, NIH3T3; cytotoxicity
# Procedure: (§1) Candida IC50s were determined by OD600 and fluorescence from vegetative cells and by MTS viability assay in the hyphal state. MICs were determined using a broth microdilution assay under standard CLSI conditions Bacteria strains: E. coli 25922 (EC), S. aureus 27660 (SA), E. faecalis 29212 (EF), P. aeruginosa 10145 (PA), and K. pneumoniae 13883 (KP). Cytotoxicity (EC50) was determined against mouse 3T3 fibroblasts, human transformed liver HepG2 cells, and human oral keratinocyte cell line, OKF6/TERT using an MTS viability assay. Candida IC50s<10 μg/mL, MICs<5 μg/mL and cytotoxicity EC50s>100 μM are indicated in green. MICs>5 μg/mL and cytotoxicity EC50s<100 μM are indicated in red.
# (§2) Candida IC50s (CA) were determined by OD600 and fluorescence from vegetative cells. MICs were determined using a broth microdilution assay under standard CLSI conditions Bacteria strains: E. coli 25922 (EC), S. aureus 27660 (SA), E. faecalis 29212 (EF), P. aeruginosa 10145 (PA), and K. pneumoniae 13883 (KP). Cytotoxicity (EC50) was determined against mouse 3T3 fibroblasts and human transformed liver HepG2 cells using an MTS viability assay.
# (§3) CLSI conditions Bacteria strains: clinical isolates; yeast strains: C. dubliniensis (NCPF3949), C. glabrata (ATCC 90030), C. krusei (ATCC 6258), C. parapsilosis (ATCC 22019), and C. tropicalis (ATCC 750). Cytotoxicity (EC50) was determined against mouse 3T3 fibroblasts, human transformed liver HepG2 cells, and human oral keratinocyte cell line, OKF6/TERT using an MTS viability assay.
# [1] = test system: human transformed liver HepG2 cells; assay: Cytotoxicity, MTS viability assay; assay type: cell-based; settings: Homo sapiens, HepG2; cytotoxicity
# Procedure: as §1, §2, §3
# [2] = test system: C. parapsilosis (ATCC 22019); assay: Yeast MIC; assay type: cell-based; settings: Lodderomyces parapsilosis, ATCC22019
# Procedure: (§4) Candida MIC assays were determined in accordance with CLSI guidelines M27-A3 using a clinically isolated C. albicans strain, GDH2346.50% human serum was added to determine activity in the presence of serum.
# as §3
# C. krusei (ATCC 6258) = assay: Yeast MIC; assay type: cell-based; settings: Pichia kudriavzevii, ATCC6258
# Procedure: as §4, §3
# [3] = test system: C. dubliniensis (NCPF3949); assay: Yeast MIC; assay type: cell-based; settings: for MIC: Candida dubliniensis, NCPF3949
# Procedure: as §4, §3
# C. tropicalis (ATCC 750) = assay: Yeast MIC; assay type: cell-based; settings: Candida tropicalis, ATCC750
# Procedure: as §4, §3
# C. glabrata (ATCC 90030) = assay: Yeast MIC; assay type: cell-based; settings: for MIC: Nakaseomyces glabratus, ATCC90030
# Procedure: as §4, §3
# C. albicans GDH2346 [4] = assay: Cellular efflux, ATP release by luciferase assay; assay type: cell-based
# Procedure: (A) C. albicans GDH2346 was treated with either Compound 100 or histatin 5 for 30 minutes, followed by the separation of the extracellular medium and the cells. Intracellular and extracellular ATP levels were quantified by luciferase assay and measurement in a luminometer, relative to a standard control. Treatment 1=no treatment; Treatment 2=16 μg/mL Compound 100; Treatment 3=32 μg/mL Compound 100; and Treatment 4=Histatin 5 (1 mg/mL). (B) Time dependent release of ATP of cells treated with Compound 100 at 32 μg/mL. (C) Dose response of cells treated for 30 minutes, followed by quantification of extracellular ATP.
# C. albicans GDH2346 [5] = assay: Time kill; assay type: cell-based; settings: FIGS. 6A and 6B
# Procedure: Time kills were performed in the same manner as IC50s. At each time point yeast were removed, diluted as necessary and plated on YPD agar to determine viable CFUs.
# [6] = test system: C. albicans (clinical isolate GDH2346); assay: Mouse model of oral candidiasis; assay type: in vivo, mice
# Procedure: To examine the activity of Compound 100 in vivo, an oral model of Candida infection was established in C57B1/6 mice. Animals were first treated for 5 days with oral tetracycline to reduce normal oral flora. An infection was initiated in the mice by inoculating a 50 μL suspension of C. albicans onto lightly scored tongues. This led to colonization of the tongues by days 2 to 4 after inoculation as measured by histological analysis and by recovery of viable colonies upon homogenization. Topical treatment of the infections on day 3 with a single 50 μL dose of a 1 mg/mL compound solution in a neutral hydrogel was sufficient to reduce the total colony counts by greater than 10-fold, equivalent to a similar treatment with an equivalent concentration of Nystatin suspension. […] 8-week old male mBD-1(−/−) mice on a C57B1/6 background were pre-treated for 5 days with 2.5 mg/mL oral tetracycline to reduce normal oral flora (n=5 per group; n=4 for nystatin group). Day 0: infection initiated by oral inoculation of a 50 μL suspension of C. albicans (clinical isolate GDH2346 at 5×10^7 cfu/mL) onto a cotton ball after lightly scoring the tongues. Day 3: Single topical administration of test agent (10 mg/mL) applied in 0.05 mL hydrogel. Tissue was harvested 24 hours post-treatment, homogenized, and quantitated by serial dilution and plating.
# C. albicans GDH2346 [7] = assay: Membrane permeabilization, PI staining and flow cytometry; assay type: cell-based; settings: 32 μg/mL, 5-minute treatment
# Procedure: (A) C. albicans GDH2346 was treated with Compound 100 at the concentrations indicated ([…]) for 30 minutes, followed by staining with PI and quantification by flow cytometry. Ethanol treatment was used to establish 100% uptake. (B) Cells were treated with Compound 100 at 32 μg/mL for the times indicated. To determine whether the compounds act at the membrane, like many host defense proteins, or intracellularly like histatins, the ability of Compound 100 to cause membrane permeability was assessed. Dose-dependent membrane permeabilization of Candida, as shown by cellular accumulation of PI, was evident within 30 minutes at 8 to 32 μg/mL Compound 100 concentrations (see FIG. 3A). Influx was rapid, where >75% of cells were permeabilized after a 5-minute treatment with Compound 100 at 32 μg/mL (see FIG. 3B).
# C. albicans GDH2346 [8] = assay: Candida MIC, CLSI M27-A3; assay type: cell-based; settings: Candida albicans, GDH2346
# Procedure: as §4
# [9] = Table 5, read-out: MIC C. dubliniensis
# [10] = Table 5, read-out: MIC C. glabrata
# [11] = Table 5, read-out: MIC C. albicans
# [12] = 50% human serum, read-out: MIC C. dubliniensis + 50% HS
# [13] = without serum, read-out: MIC C. dubliniensis
# [14] = 50% human serum, read-out: MIC C. glabrata + 50% HS
# [15] = without serum, read-out: MIC C. glabrata
# [16] = 50% human serum, read-out: MIC C. albicans GDH2346 + 50% HS
# [17] = without serum, read-out: MIC C. albicans GDH2346
MIC [2] [µg/mL],MIC (C. krusei (ATCC 6258)) [µg/mL],"MIC [3, 9] [µg/mL]",MIC (C. tropicalis (ATCC 750)) [µg/mL],MIC (C. glabrata (ATCC 90030); [10]) [µg/mL],MIC (C. albicans GDH2346 [8]; [11]) [µg/mL],Compound,IC50 (mouse 3T3 fibroblasts) [µM],IC50 [1] [µM],killing kinetics (C. albicans GDH2346 [5]),"MIC [3, 12] [µg/mL]","MIC [3, 13] [µg/mL]",MIC C. dubliniensis ([3]; Table 5) [µg/mL],MIC (C. glabrata (ATCC 90030); [14]) [µg/mL],MIC (C. glabrata (ATCC 90030); [15]) [µg/mL],MIC C. glabrata (C. glabrata (ATCC 90030); Table 5) [µg/mL],MIC (C. albicans GDH2346 [8]; [16]) [µg/mL],MIC (C. albicans GDH2346 [8]; [17]) [µg/mL],other results
8,8,8,4,16,4 to 8,NCCSc1cc(SCCN)c(C(F)(F)F)cc1NC(=O)c1cc(C(=O)Nc2cc(C(F)(F)F)c(SCCN)cc2SCCN)ncn1 [Compound 100],439,> 1000,cidal activity with rapid killing kinetics,–,–,–,–,–,–,–,–,"time to significant extracellular ATP accumulation (C. albicans GDH2346 [4]; 32 μg/mL): ≤ 20 min; ATP efflux (intracellular vs extracellular ATP) (C. albicans GDH2346 [4]; 32 μg/mL, 30 minutes): almost all of the ATP from the cell was extracellular; concentration with detectable extracellular ATP levels (C. albicans GDH2346 [4]; 30 minutes of exposure): 16 µg/mL; reduction of total colony counts ([6]; single 50 μL dose of 1 mg/mL solution in neutral hydrogel, day 3, C57B1/6 mice): greater than 10 fold; efficacy relative to Nystatin ([6]; single topical dose 10 mg/mL in 0.05 mL hydrogel on day 3, tongue harvested 24 hours post-treatment): 50 fold; effect on infected tongue burden ([6]; single topical dose 10 mg/mL in hydrogel): nearly sterilized the infected tongue; cells permeabilized (PI uptake) (C. albicans GDH2346 [7]): > 75%"
4 to 8,32,–,4 to 8,–,4,N=C(N)N1CCN(c2ccc(-c3cc(-c4ccc(N5CCN(C(=N)N)CC5)cc4)ncn3)cc2)CC1 [Compound 136],311,453,–,2,8,8,1,4,4,2,4,–
4 to 8,8,8 to 16,4,8,8,NCCCOc1cc(-c2cn(-c3cc(OCCCN)cc(OCCCN)c3)nn2)cc(-c2cn(-c3cc(OCCCN)cc(OCCCN)c3)nn2)c1 [Compound 137],83,182,–,–,–,–,–,–,–,–,–,–

Compound,MIC [2] [µg/mL],MIC (C. krusei (ATCC 6258)) [µg/mL],"MIC [3, 9] [µg/mL]",MIC (C. tropicalis (ATCC 750)) [µg/mL],MIC (C. glabrata (ATCC 90030); [10]) [µg/mL],MIC (C. albicans GDH2346 [8]; [11]) [µg/mL],IC50 (mouse 3T3 fibroblasts) [µM],IC50 [1] [µM],killing kinetics (C. albicans GDH2346 [5]),"MIC [3, 12] [µg/mL]","MIC [3, 13] [µg/mL]",MIC C. dubliniensis ([3]; Table 5) [µg/mL],MIC (C. glabrata (ATCC 90030); [14]) [µg/mL],MIC (C. glabrata (ATCC 90030); [15]) [µg/mL],MIC C. glabrata (C. glabrata (ATCC 90030); Table 5) [µg/mL],MIC (C. albicans GDH2346 [8]; [16]) [µg/mL],MIC (C. albicans GDH2346 [8]; [17]) [µg/mL],other results
NCCCOc1cc(OCCCN)cc(-c2ccc3c(c2)c2cc(-c4cc(OCCCN)cc(OCCCN)c4)ccc2n3CCCN)c1 [Compound 135],2,16,–,2 to 4,–,4,436,885,cidal activity with rapid killing kinetics,1,4,4,2,2,2,2,4,–
